# According to patent US20160046618A1, “Cyclopropyl Fused Thiazin-2-Amine Compounds as Beta-Secretase Inhibitors and Methods of Use” (AMGEN INC., priority 2014, published 2016):
# Columns and labels:
# [1] = molecular target: human recombinant BACE2 (Homo sapiens (Human), UniProt Q9Y5Z0); experiment: In vitro enzymatic BACE2 FRET assay; format: biochemical; conditions: read-out: IC50 IP (μM) BACE2 enzyme
# Procedure, shortened: (§1)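 Fluorescence from cleavage of a quenched peptide spanning the BACE site (50 nM) was read at 488 nm excitation, 590 nm emission. Purified enzyme (Ni-NTA) and compound reacted for one hour before a Tris stop shifted pH to neutral.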
# [2] = molecular target: Recombinant Cat D (Homo sapiens (Human), UniProt P07339); experiment: In vitro enzymatic Cathepsin D (Cat D) FRET assay; format: biochemical; conditions: read-out: IC50 IP (μM) CatD
# Chain of Recombinant Cat D (P07339 65-412): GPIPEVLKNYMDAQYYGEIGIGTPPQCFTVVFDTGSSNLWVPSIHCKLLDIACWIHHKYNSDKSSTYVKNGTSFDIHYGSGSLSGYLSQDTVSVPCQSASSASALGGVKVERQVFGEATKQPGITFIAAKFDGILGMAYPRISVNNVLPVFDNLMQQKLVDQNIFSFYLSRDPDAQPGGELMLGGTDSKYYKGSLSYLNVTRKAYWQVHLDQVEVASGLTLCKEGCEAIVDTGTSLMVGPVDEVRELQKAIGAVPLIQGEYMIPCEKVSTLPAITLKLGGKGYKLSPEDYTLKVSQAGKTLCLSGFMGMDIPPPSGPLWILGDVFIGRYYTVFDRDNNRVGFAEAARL
# Procedure, shortened: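 Assay pH is 3.5 (0.05 M citrate, 5 mM CHAPS, 10% DMSO final) with Cat D from CHO cells. A 20 nM quenched peptide substrate is cleaved over one hour; the reaction is ended with Tris and read by fluorescence (ex 500, em 580 nm).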
# [3] = molecular target: human recombinant BACE1 (Homo sapiens (Human), UniProt P56817); experiment: In vitro enzymatic BACE1 FRET assay; format: biochemical; conditions: read-out: IC50 IP (μM) BACE1 enzyme
# Chain of human recombinant BACE1 (P56817 46-501): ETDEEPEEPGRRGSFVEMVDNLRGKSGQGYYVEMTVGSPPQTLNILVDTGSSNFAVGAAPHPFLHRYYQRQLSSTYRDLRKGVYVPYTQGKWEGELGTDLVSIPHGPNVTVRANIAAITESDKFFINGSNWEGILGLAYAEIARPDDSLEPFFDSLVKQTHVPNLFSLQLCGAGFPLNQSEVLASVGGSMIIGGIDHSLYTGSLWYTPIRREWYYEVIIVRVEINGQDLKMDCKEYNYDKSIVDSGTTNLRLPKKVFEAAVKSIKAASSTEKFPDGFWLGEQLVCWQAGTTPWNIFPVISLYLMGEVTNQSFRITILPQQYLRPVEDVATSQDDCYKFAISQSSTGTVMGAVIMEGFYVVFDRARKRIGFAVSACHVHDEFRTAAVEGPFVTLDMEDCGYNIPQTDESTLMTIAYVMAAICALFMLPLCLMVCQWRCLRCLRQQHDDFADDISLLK
# Procedure, shortened: as §1
# [4] = tested on: Aβ40 in conditioned medium of cells stably expressing Amyloid Precursor Protein (APP); experiment: In vitro BACE-1 cell-based assay (Aβ40 sandwich ELISA); conditions: read-out: IC50 IP (μM) BACE1 cell
# Procedure, shortened: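 Aβ40 in supernatants measured by time-resolved fluorescence sandwich ELISA, with pAb40 as capture and biotin-6E10 as detector antibody, each incubated at 4 °C.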
# Chain of human recombinant BACE2 (Q9Y5Z0 63-518): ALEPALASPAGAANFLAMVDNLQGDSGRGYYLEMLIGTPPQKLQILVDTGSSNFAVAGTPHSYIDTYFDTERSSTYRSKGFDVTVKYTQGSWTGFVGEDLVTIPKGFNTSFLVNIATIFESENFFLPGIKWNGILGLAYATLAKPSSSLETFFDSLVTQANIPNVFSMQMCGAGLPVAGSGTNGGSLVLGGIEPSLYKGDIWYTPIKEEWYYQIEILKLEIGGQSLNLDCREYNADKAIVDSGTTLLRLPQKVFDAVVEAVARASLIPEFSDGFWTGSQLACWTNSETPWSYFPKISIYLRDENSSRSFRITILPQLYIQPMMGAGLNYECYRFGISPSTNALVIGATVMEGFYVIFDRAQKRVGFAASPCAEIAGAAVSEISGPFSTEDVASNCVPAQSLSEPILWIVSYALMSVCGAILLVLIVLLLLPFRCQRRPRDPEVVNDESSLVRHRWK
Compound,IC50 [1] [µM],IC50 [2] [µM],IC50 [3] [µM],IC50 [4] [µM]
"C#CCOc1cnc2c(Nc3cc(F)c(F)c([C@@]4(C)N=C(N)S[C@@]5(COC)C[C@H]54)c3)nccc2c1 [Example 733, N-(3-((1S,5S,6S)-3-amino-1-(methoxymethyl)-5-methyl-2-thia-4-azabicyclo[4.1.0]hept-3-en-5-yl)-4,5-difluorophenyl)-3-(2-propyn-1-yloxy)-1,7-naphthyridin-8-amine]",0.0642,1520,0.00638,0.014
"COC[C@]12C[C@H]1[C@@](C)(c1cc(NC(=O)c3cnc(OCC(F)(F)C(F)F)cn3)cc(F)c1F)N=C(N)S2 [Example 734, N-(3-((1S,5S,6S)-3-amino-1-(methoxymethyl)-5-methyl-2-thia-4-azabicyclo[4.1.0]hept-3-en-5-yl)-4,5-difluorophenyl)-5-(2,2,3,3-tetrafluoropropoxy)-2-pyrazinecarboxamide]",0.188,2110,0.00173,0.017
"COC[C@]12C[C@H]1[C@@](C)(c1cc(Nc3nccc4cc(OCc5ncc(Cl)s5)cnc34)cc(F)c1F)N=C(N)S2 [Example 735, N-(3-((1S,5S,6S)-3-amino-1-(methoxymethyl)-5-methyl-2-thia-4-azabicyclo[4.1.0]hept-3-en-5-yl)-4,5-difluorophenyl)-3-((5-chloro-1,3-thiazol-2-yl)methoxy)-1,7-naphthyridin-8-amine]",0.978,1650,0.0412,1.76
"COC[C@]12C[C@H]1[C@@](C)(c1cc(Nc3nccc4cc(OCc5nc(Br)cs5)cnc34)cc(F)c1F)N=C(N)S2 [Example 736, N-(3-((1S,5S,6S)-3-amino-1-(methoxymethyl)-5-methyl-2-thia-4-azabicyclo[4.1.0]hept-3-en-5-yl)-4,5-difluorophenyl)-3-((4-bromo-1,3-thiazol-2-yl)methoxy)-1,7-naphthyridin-8-amine]",0.765,151,0.0317,1.07
"COC[C@]12C[C@H]1[C@@](C)(c1cc(Nc3nccc4cc(OCc5nccs5)cnc34)cc(F)c1F)N=C(N)S2 [Example 737, N-(3-((1S,5S,6S)-3-amino-1-(methoxymethyl)-5-methyl-2-thia-4-azabicyclo[4.1.0]hept-3-en-5-yl)-4,5-difluorophenyl)-3-(1,3-thiazol-2-ylmethoxy)-1,7-naphthyridin-8-amine]",0.693,1500,0.0325,0.274
"COC[C@]12C[C@H]1[C@@](C)(c1cc(NC(=O)c3cnc(OCC(C)(F)F)cn3)cc(F)c1F)N=C(N)S2 [Example 739, N-(3-((1S,5S,6S)-3-amino-1-(methoxymethyl)-5-methyl-2-thia-4-azabicyclo[4.1.0]hept-3-en-5-yl)-4,5-difluorophenyl)-5-(2,2-difluoropropoxy)-2-pyrazinecarboxamide]",0.158,1460,0.00421,0.0169
"COC[C@]12C[C@H]1[C@@](C)(c1cc(NC(=O)c3cnc(OCCCF)cn3)cc(F)c1F)N=C(N)S2 [Example 740, N-(3-((1S,5S,6S)-3-amino-1-(methoxymethyl)-5-methyl-2-thia-4-azabicyclo[4.1.0]hept-3-en-5-yl)-4,5-difluorophenyl)-5-(3-fluoropropoxy)-2-pyrazinecarboxamide]",0.209,927,0.0055,0.0194
"COC[C@]12C[C@H]1[C@@](C)(c1cc(Nc3nccc4cc(OCC#CC(F)(F)F)cnc34)cc(F)c1F)N=C(N)S2 [Example 741, N-(3-((1S,5S,6S)-3-amino-1-(methoxymethyl)-5-methyl-2-thia-4-azabicyclo[4.1.0]hept-3-en-5-yl)-4,5-difluorophenyl)-3-((4,4,4-trifluoro-2-butyn-1-yl)oxy)-1,7-naphthyridin-8-amine]",0.658,94.4,0.0269,1.14
"C[C@]1(c2cc(NC(=O)c3ccc(Cl)cn3)cc(F)c2F)N=C(N)S[C@@]2(S(C)(=O)=O)C[C@H]21 [Example 742, N-(3-((1R,5S,6S)-3-amino-5-methyl-1-(methylsulfonyl)-2-thia-4-azabicyclo[4.1.0]hept-3-en-5-yl)-4,5-difluorophenyl)-5-chloro-2-pyridinecarboxamide]",< 0.00203,846,0.000719,0.0149
"C#CCOc1ccc(C(=O)Nc2cc(F)c(F)c([C@@]3(C)N=C(N)S[C@@]4(S(C)(=O)=O)C[C@H]43)c2)nc1 [Example 743, N-(3-((1R,5S,6S)-3-amino-5-methyl-1-(methylsulfonyl)-2-thia-4-azabicyclo[4.1.0]hept-3-en-5-yl)-4,5-difluorophenyl)-5-(2-propyn-1-yloxy)-2-pyridinecarboxamide]",0.00543,> 133,0.000395,0.00971
"C#CCOc1cnc(C(=O)Nc2cc(F)c(F)c([C@@]3(C)N=C(N)S[C@@]4(S(C)(=O)=O)C[C@H]43)c2)cn1 [Example 744, N-(3-((1R,5S,6S)-3-amino-5-methyl-1-(methylsulfonyl)-2-thia-4-azabicyclo[4.1.0]hept-3-en-5-yl)-4,5-difluorophenyl)-5-(2-propyn-1-yloxy)-2-pyrazinecarboxamide]",0.0183,46.5,0.00029,0.000872
"C[C@]1(c2cc(NC(=O)c3ccc(OCc4ncco4)cn3)cc(F)c2F)N=C(N)S[C@@]2(S(C)(=O)=O)C[C@H]21 [Example 745, N-(3-((1R,5S,6S)-3-amino-5-methyl-1-(methylsulfonyl)-2-thia-4-azabicyclo[4.1.0]hept-3-en-5-yl)-4,5-difluorophenyl)-5-(1,3-oxazol-2-ylmethoxy)-2-pyridinecarboxamide]",0.0257,972,0.000898,0.0175
"C[C@]1(c2cc(NC(=O)c3cnc(OCc4ncco4)cn3)cc(F)c2F)N=C(N)S[C@@]2(S(C)(=O)=O)C[C@H]21 [Example 746, N-(3-((1R,5S,6S)-3-amino-5-methyl-1-(methylsulfonyl)-2-thia-4-azabicyclo[4.1.0]hept-3-en-5-yl)-4,5-difluorophenyl)-5-(1,3-oxazol-2-ylmethoxy)-2-pyrazinecarboxamide]",0.00522,880,0.000628,0.00356
"C[C@]1(c2cc(Nc3nccc4nc(OCc5ncco5)cnc34)cc(F)c2F)N=C(N)S[C@@]2(S(C)(=O)=O)C[C@H]21 [Example 747, (1R,5S,6S)-5-(2,3-difluoro-5-((2-(oxazol-2-ylmethoxy)pyrido[3,4-b]pyrazin-5-yl)amino)phenyl)-5-methyl-1-(methylsulfonyl)-2-thia-4-azabicyclo[4.1.0]hept-3-en-3-amine]",0.0115,1190,0.00242,0.0123
"C[C@]1(c2cc(NC(=O)c3ccc(Cl)cn3)cc(F)c2F)N=C(N)S[C@@H]2[C@H]1C2(F)F [Example 748, N-(3-((1R,5S,6R)-3-amino-7,7-difluoro-5-methyl-2-thia-4-azabicyclo[4.1.0]hept-3-en-5-yl)-4,5-difluorophenyl)-5-chloro-2-pyridinecarboxamide]",0.00284,129,0.00807,0.597
"C#CCOc1cnc(C(=O)Nc2ccc(F)c([C@@]3(C)N=C(N)S[C@]4(CO)[C@H]3C4(F)F)c2)cn1 [Example 749, N-(3-((1S,5S,6R)-3-amino-7,7-difluoro-1-(hydroxymethyl)-5-methyl-2-thia-4-azabicyclo[4.1.0]hept-3-en-5-yl)-4-fluorophenyl)-5-(2-propyn-1-yloxy)-2-pyrazinecarboxamide]",0.00979,101,0.000319,0.00121
"C[C@]1(c2cc(Nc3ncnc4cc(OCc5ncco5)cnc34)ccc2F)N=C(N)S[C@]2(CO)[C@H]1C2(F)F [Example 750, ((1S,5S,6R)-3-amino-7,7-difluoro-5-(2-fluoro-5-((7-(1,3-oxazol-2-ylmethoxy)pyrido[3,2-d]pyrimidin-4-yl)amino)phenyl)-5-methyl-2-thia-4-azabicyclo[4.1.0]hept-3-en-1-yl)methanol]",0.0404,246,0.0019,0.00301
"C[C@]1(c2cc(NC(=O)c3ccc(OCC(F)(F)C(F)F)cn3)ccc2F)N=C(N)S[C@]2(CO)[C@H]1C2(F)F [Example 751, N-(3-((1S,5S,6R)-3-amino-7,7-difluoro-1-(hydroxymethyl)-5-methyl-2-thia-4-azabicyclo[4.1.0]hept-3-en-5-yl)-4-fluorophenyl)-5-(2,2,3,3-tetrafluoropropoxy)-2-pyridinecarboxamide]",0.255,292,0.00203,0.0338
"NC1=N[C@](CF)(c2cc(NC(=O)c3ccc(Cl)cn3)ccc2F)[C@@H]2C3CSC[C@]32S1 (stereo partly drawn) [Example 753, N-(3-((4S,4aS,7aR)-2-amino-4-(fluoromethyl)-4a,4b,5,7-tetrahydro-4H-thieno[3′,4′:2,3]cyclopropa[1,2-e][1,3]thiazin-4-yl)-4-fluorophenyl)-5-chloropicolinamide]",0.00304,420,0.00339,0.0964
